Each structure is given as a SMILES string.

The target in the assay is T1, human NEP (Homo sapiens, UniProt P08473).
T1 construct: purchased R&D Systems, Minneapolis, Minn; 1182-ZN
T1 sequence (P08473 whole entry): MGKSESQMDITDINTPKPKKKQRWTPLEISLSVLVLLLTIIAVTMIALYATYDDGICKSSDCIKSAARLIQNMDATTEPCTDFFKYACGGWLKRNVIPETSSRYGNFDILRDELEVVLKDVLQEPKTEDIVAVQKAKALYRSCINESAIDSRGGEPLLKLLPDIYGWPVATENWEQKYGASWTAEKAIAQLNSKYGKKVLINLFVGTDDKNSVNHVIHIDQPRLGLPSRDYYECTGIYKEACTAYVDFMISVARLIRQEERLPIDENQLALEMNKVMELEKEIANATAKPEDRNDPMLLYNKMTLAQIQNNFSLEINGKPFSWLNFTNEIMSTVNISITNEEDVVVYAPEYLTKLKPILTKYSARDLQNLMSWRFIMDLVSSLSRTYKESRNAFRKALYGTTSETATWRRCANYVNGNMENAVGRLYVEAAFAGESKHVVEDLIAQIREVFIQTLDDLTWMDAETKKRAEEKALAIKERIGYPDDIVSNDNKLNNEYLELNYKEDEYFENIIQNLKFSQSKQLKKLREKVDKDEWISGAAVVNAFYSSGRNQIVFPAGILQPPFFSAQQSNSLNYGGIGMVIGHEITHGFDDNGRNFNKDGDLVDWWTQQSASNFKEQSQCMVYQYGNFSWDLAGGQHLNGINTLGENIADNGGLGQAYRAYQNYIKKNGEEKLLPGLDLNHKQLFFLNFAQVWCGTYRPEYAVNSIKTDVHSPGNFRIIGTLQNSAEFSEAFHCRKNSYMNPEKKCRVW
Briefly: In vitro enzyme inhibition assay, inhibitor potency at human NEP. In kind it is biochemical. The settings on record: pKi values at human NEP; recombinant human NEP, fluorogenic peptide substrate 10 μM, 37° C. How it is done:
The inhibitory activities of compounds at human and rat neprilysin (EC 3.4.24.11; NEP) and human angiotensin converting enzyme (ACE) were determined using in vitro assays as described below.
Recombinant human NEP and recombinant human ACE were obtained commercially (R&D Systems, Minneapolis, Minn., catalog numbers 1182-ZN and 929-ZN, respectively). The fluorogenic peptide substrate Mca-D-Arg-Arg-Leu-Dap-(Dnp)-OH (Medeiros et al. (1997) Braz. J. Med. Biol. Res. 30:1157-62; Anaspec, San Jose, Calif.) and Abz-Phe-Arg-Lys(Dnp)-Pro-OH (Araujo et al. (2000) Biochemistry 39:8519-8525; Bachem, Torrance, Calif.) were used in the NEP and ACE assays respectively.
The assays were performed in 384-well white opaque plates at 37° C. using the fluorogenic peptide substrates at a concentration of 10 μM in Assay Buffer (NEP: 50 mM HEPES, pH 7.5, 100 mM NaCl, 0.01% polyethylene glycol sorbitan monolaurate (Tween-20), 10 μM ZnSO4; ACE: 50 mM HEPES, pH 7.5, 100 mM NaCl, 0.01% Tween-20, 1 μM ZnSO4).
Test compounds were assayed over the range of concentrations from […] to 20 μM. Test compounds were added to the enzymes and incubated for 30 minute at 37° C. prior to initiating the reaction by the addition of substrate. Reactions were terminated after 20 minutes of incubation at 37° C. by the addition of glacial acetic acid to a final concentration of 3.6% (v/v).
Plates were read on a fluorometer with excitation and emission wavelengths set to 320 nm and 405 nm, respectively. Inhibition constants were obtained by nonlinear regression of the data using the equation (GraphPad Software, Inc., San Diego, Calif.): v=v0/[1+(I/K′)] where v is the reaction rate, v0 is the uninhibited reaction rate, I is the inhibitor concentration and K′ is the apparent inhibition constant.
Compounds of the invention were tested in this assay and found to have pKi values at human NEP as follows.
Regarding `Cc1cc(C(=O)N[C@H](Cc2ccccc2Cl)[C@@H](O)C(=O)O)cc(-c2ccccc2C(=O)O)n1` [Example 2-4, 2-{4-[(1R,2R)-2-Carboxy-1-(2-chloro-benzyl)-2-hydroxy-ethylcarbamoyl]-6-methyl-pyridin-2-yl}-benzoic acid], the Ki was 1.26 to 10 nM.
In the case of `O=C(N[C@H](Cc1ccccc1Cl)[C@@H](O)C(=O)O)c1cc(-c2ccc(Cl)cc2)no1` [Example 2-14, (2R,3R)-4-(2-Chloro-phenyl)-3-{[3-(4-chloro-phenyl)-isoxazole-5-carbonyl]-amino}-2-hydroxy-butyric acid] it was 1.26 to 10 nM.
In the case of `O=C(N[C@H](Cc1ccccc1Cl)[C@@H](O)C(=O)O)c1nn(Cc2ccc(Cl)cc2F)c(=O)[nH]1` [Example 2-23, (2R,3R)-3-{[1-(4-Chloro-2-fluoro-benzyl)-5-oxo-4,5-dihydro-1H-[1,2,4]triazole-3-carbonyl]-amino}-4-(2-chloro-phenyl)-2-hydroxy-butyric acid] it was 12.6 to 100 nM.
In the case of `O=C(N[C@H](Cc1ccccc1Cl)[C@@H](O)C(=O)O)c1cnc(O)nc1` [Example 2-35, (2R,3R)-4-(2-Chloro-phenyl)-2-hydroxy-3-[(2-hydroxy-pyrimidine-5-carbonyl)-amino]-butyric acid] it was ≤ 1 nM; in that of `CCCc1nc2c(C)cc(C(=O)N[C@H](Cc3ccccc3)[C@@H](O)C(=O)O)cc2n1Cc1ccc(OC)cc1` [Example 5-7, (2R,3R)-2-Hydroxy-3-{[3-(4-methoxy-benzyl)-7-methyl-2-propyl-3H-benzoimidazole-5-carbonyl]-amino}-4-phenyl-butyric acid], 12.6 to 100 nM.
In the case of `O=C(N[C@H](Cc1ccccc1Cl)[C@@H](O)C(=O)O)c1cncc(-c2ccccc2C(=O)O)c1` [Example 2-5, 2-{5-[(1R,2R)-2-Carboxy-1-(2-chloro-benzyl)-2-hydroxy-ethylcarbamoyl]-pyridin-3-yl}-benzoic acid], the Ki was 1.26 to 10 nM.
In the case of `O=C1CCC(C(=O)N[C@H](Cc2ccccc2Cl)[C@@H](O)C(=O)O)=NN1` [Example 2-39, (2R,3R)-4-(2-Chloro-phenyl)-2-hydroxy-3-[(6-oxo-1,4,5,6-tetrahydro-pyridazine-3-carbonyl)-amino]-butyric acid] it was 12.6 to 100 nM; in that of `O=C(N[C@H](Cc1ccccc1Cl)[C@@H](O)C(=O)O)c1cnc(-c2ccccc2C(=O)O)c(Cl)c1` [Example 2-9, 2-{5-[(1R,2R)-2-Carboxy-1-(2-chloro-benzyl)-2-hydroxy-ethylcarbamoyl]-3-chloro-pyridin-2-yl}-benzoic acid], 1.26 to 10 nM.
Regarding `O=C(N[C@H](Cc1ccccc1Cl)[C@@H](O)C(=O)O)c1cc(=O)n(Cc2ccc(Cl)cc2F)o1` [Example 2-16, (2R,3R)-3-{[2-(4-Chloro-2-fluoro-benzyl)-3-oxo-2,3-dihydro-isoxazole-5-carbonyl]-amino}-4-(2-chloro-phenyl)-2-hydroxy-butyric acid], the Ki is 1.26 to 10 nM.
Under `Cc1cc(C(=O)N[C@H](Cc2ccccc2)[C@@H](O)C(=O)O)cc2[nH]nnc12` [Example 5-15, (2R,3R)-2-Hydroxy-3-[(7-methyl-3H-benzotriazole-5-carbonyl)-amino]-4-phenyl-butyric acid] stands 12.6 to 100 nM.
In the case of `O=C(N[C@H](Cc1ccccc1Cl)[C@@H](O)C(=O)O)c1cnc(-c2ccccc2C(=O)O)c(F)c1` [Example 2-10, 2-{5-[(1R,2R)-2-Carboxy-1-(2-chloro-benzyl)-2-hydroxy-ethylcarbamoyl]-3-fluoro-pyridin-2-yl}-benzoic acid] it was 1.26 to 10 nM; in that of `O=C(O)C[C@@H](Cc1ccccc1Cl)NC(=O)c1cnc(O)nc1` [Example 7-8, (R)-4-(2-Chloro-phenyl)-3-[(2-hydroxy-pyrimidine-5-carbonyl)-amino]-butyric acid], 1.26 to 10 nM; in that of `O=C(O)c1ccc(C(=O)N[C@H](Cc2ccccc2)[C@@H](O)C(=O)O)s1` [Example 5-31, 5-((1R,2R)-1-Benzyl-2-carboxy-2-hydroxy-ethylcarbamoyl)-thiophene-2-carboxylic acid], 1.26 to 10 nM.
Under `O=C(N[C@H](Cc1ccccc1)[C@@H](O)C(=O)O)c1cc(F)c2[nH]nnc2c1` [Example 5-16, (2R,3R)-3-[(7-Fluoro-1H-benzotriazole-5-carbonyl)-amino]-2-hydroxy-4-phenyl-butyric acid] stands 12.6 to 100 nM.
Regarding `Cc1cc(-c2ccccc2C(=O)O)cc(C(=O)N[C@H](Cc2ccccc2Cl)[C@@H](O)C(=O)O)n1` [Example 2-1, 2-{2-[(1R,2R)-2-Carboxy-1-(2-chloro-benzyl)-2-hydroxy-ethylcarbamoyl]-6-methyl-pyridin-4-yl}-benzoic acid], the inhibition constant Ki is ≤ 1 nM.
In the case of `O=C(N[C@H](Cc1ccccc1Cl)[C@@H](O)C(=O)O)c1ccc2ncc(Br)n2c1` [Example 2-33, (2R,3R)-3-[(3-Bromo-imidazo[1,2-a]pyridine-6-carbonyl)-amino]-4-(2-chloro-phenyl)-2-hydroxy-butyric acid] it was 12.6 to 100 nM; in that of `Cc1cc(C(=O)N[C@@H](CC(=O)O)Cc2ccccc2Cl)cc2[nH]nnc12` [Example 7-2, (R)-4-(2-Chloro-phenyl)-3-[(7-methyl-3H-benzotriazole-5-carbonyl)-amino]-butyric acid], 12.6 to 100 nM; in that of `O=C(N[C@H](Cc1ccccc1)[C@@H](O)C(=O)O)c1cnc(-c2ccccc2C(=O)O)cn1` [Example 5-19, 2-[5-((1R,2R)-1-Benzyl-2-carboxy-2-hydroxy-ethylcarbamoyl)-pyrazin-2-yl]-benzoic acid], 12.6 to 100 nM.
Under `O=C(N[C@H](Cc1ccccc1Cl)[C@@H](O)C(=O)O)c1cc(-c2cccc(Cl)c2)no1` [Example 2-13, (2R,3R)-4-(2-Chloro-phenyl)-3-{[3-(3-chloro-phenyl)-isoxazole-5-carbonyl]-amino}-2-hydroxy-butyric acid] stands 1.26 to 10 nM.
In the case of `CCCc1nc2c(C)cc(C(=O)N[C@H](Cc3ccccc3)[C@@H](O)C(=O)O)cc2n1CC(N)=O` [Example 5-8, (2R,3R)-3-[(3-Carbamoylmethyl-7-methyl-2-propyl-3H-benzoimidazole-5-carbonyl)-amino]-2-hydroxy-4-phenyl-butyric acid] it was 12.6 to 100 nM; in that of `O=C(N[C@H](Cc1ccccc1Cl)[C@H](O)C(=O)O)c1cc(Cl)c2nn[nH]c2c1` [Example 2-28, (2S,3R)-3-[(7-Chloro-3H-benzotriazole-5-carbonyl)-amino]-4-(2-chloro-phenyl)-2-hydroxy-butyric acid], 1.26 to 10 nM; in that of `O=C(O)C[C@@H](Cc1ccccc1Cl)NC(=O)c1cnc2nn[nH]c2c1` [Example 7-7, (R)-4-(2-Chloro-phenyl)-3-[(1H-[1,2,3]triazolo[4,5-b]pyridine-6-carbonyl)-amino]-butyric acid], 12.6 to 100 nM.
Regarding `O=C(N[C@H](Cc1ccccc1Cl)[C@@H](O)C(=O)O)c1ccnc(-c2ccccc2C(=O)O)c1` [Example 2-2, 2-{4-[(1R,2R)-2-Carboxy-1-(2-chloro-benzyl)-2-hydroxy-ethylcarbamoyl]-pyridin-2-yl}-benzoic acid], the Ki was ≤ 1 nM.
As for `O=C(O)C[C@@H](Cc1ccccc1Cl)NC(=O)c1cnn[nH]1` [Example 7-1, (R)-4-(2-Chloro-phenyl)-3-[(3H-[1,2,3]triazole-4-carbonyl)-amino]-butyric acid], the Ki is 12.6 to 100 nM.
Under `O=C(N[C@H](Cc1ccccc1)[C@@H](O)C(=O)O)c1ccc(-c2ccccc2C(=O)O)nc1` [Example 5-21, 2-[5-((1R,2R)-1-Benzyl-2-carboxy-2-hydroxy-ethylcarbamoyl)-pyridin-2-yl]-benzoic acid] stands 1.26 to 10 nM; under `O=C(N[C@H](Cc1ccccc1Cl)[C@@H](O)C(=O)O)c1cnc(-c2ccccc2)o1` [Example 2-18, (2R,3R)-4-(2-Chloro-phenyl)-2-hydroxy-3-[(2-phenyl-oxazole-5-carbonyl)-amino]-butyric acid], 12.6 to 100 nM; under `O=C(N[C@H](Cc1ccccc1)[C@@H](O)C(=O)O)c1ccc(C(=O)O)nc1` [Example 5-20, 5-((1R,2R)-1-Benzyl-2-carboxy-2-hydroxy-ethylcarbamoyl)-pyridine-2-carboxylic acid], 12.6 to 100 nM.
For the molecule `O=C(N[C@H](Cc1ccccc1)[C@@H](O)C(=O)O)c1cc2cccn2cn1` [Example 5-30, (2R,3R)-2-Hydroxy-4-phenyl-3-[(pyrrolo[1,2-c]pyrimidine-3-carbonyl)-amino]-butyric acid], the Ki is 12.6 to 100 nM.
For `O=C(O)C[C@@H](Cc1ccccc1Cl)NC(=O)c1ccc(-c2ccccc2C(=O)O)nn1` [Example 7-9, 2-{6-[(R)-2-Carboxy-1-(2-chloro-benzyl)-ethylcarbamoyl]-pyridazin-3-yl}-benzoic acid], the Ki is 12.6 to 100 nM.

As a reminder, the Ki is a measure of affinity in units of concentration, obtained from inhibition or displacement.

The values are drawn from patent US9771337B2, “Neprilysin inhibitors” (THERAVANCE BIOPHARMA R&D IP, LLC, priority 2011, dated 2017).
